Test system: thrombus-induced mouse model
Assay: In-vivo antithrombotic test, Rota-rod, collagen/epinephrine thrombus-induced mouse model
Design: species or system ICR mice
Settings: thrombus induced 90 min after drug, Rota-rod 24 rpm after 15 min
Method: As for the experimental animals, 5-week-old female ICR mice provided by YoungBio were stabilized in an animal laboratory at a temperature of 24±1° C., a humidity of 55±5% in a 12-hour day-night cycle for 1 week and used in the experiments.
The change in behavioral capacity was evaluated for the prepared thrombus-induced mouse model using Rota-rod, and the antithrombotic effect of the Angelica gigas Nakai extract was evaluated. The thrombus-induced mouse model was prepared as follows. A 6-week-old ICR mouse (about 20 to 25 g) stabilized as an experimental mouse was prepared, and subjected to Rota-rod training, and the reference value was created three times, and the rotation speed was set to 24 rpm, and objects withstanding without falling at a rotation speed of 300 or more were selected. […] After 15 minutes, Rota-rod testing was repeated 3 times (rotation speed: 24 rpm), and the difference in athletic performance was analyzed by the following Equation: Protection rate (%)=[(Total number of individuals−Number of killed or paralyzed individuals)/Total number of individuals]×100
Number of killed or paralyzed individuals: The number of individuals who fell at a rotation speed of 24 rpm or less in Rota-rod testing at a rotation speed of 150 or less)

| SMILES | Number of killed or paralyzed individuals / Number of total individuals (dose 100 mg/kg) | Protection (%) (dose 100 mg/kg) | Number of killed or paralyzed individuals / Number of total individuals (dose 10 mg/kg) | Protection (%) (dose 10 mg/kg) |
| --- | --- | --- | --- | --- |
| CC(=O)Oc1ccccc1C(=O)O [ASA (Aspirin), acetylsalicylic acid] | 11/20 | 45 |  |  |
| CC(C)=CC(=O)O[C@H]1Cc2cc3ccc(=O)oc3cc2OC1(C)C [Decursin, decursin] |  |  | 11/18 | 38.9 |
| CC1(C)Oc2cc3oc(=O)ccc3cc2C[C@@H]1O [Decursinol, decursinol] |  |  | 12/19 | 36.8 |

Source: US11446347B2, “Antithrombotic composition comprising Angelica gigas Nakai extract” (Astrogenesis Co., Ltd., priority 2018, dated 2022)
